This is an account of results in US20220362182A1, “METHODS FOR REVERSING HEPATIC STEATOSIS” (BRIGHTSEED, INC., priority 2020, published 2022).

One assay relates to human insulin promoter. As to the kind of experiment: modified insulin promoter assay repressed with palmitate. The format is cell-based. Conditions: insulin promoter activity repressed with palmitate. How it is done:
Alverine and benfluorex were ascertained in a modification of the insulin promoter assay in which the level of insulin promoter activity was repressed with palmitate. […] Cells were treated with 0.25 mM palmitate for 2 days in the presence and absence of NCT or NFT (10 μM).

For assay [1], the target named is T1, HNF4α (Homo sapiens, UniProt P41235).
T1 sequence (P41235 1-474): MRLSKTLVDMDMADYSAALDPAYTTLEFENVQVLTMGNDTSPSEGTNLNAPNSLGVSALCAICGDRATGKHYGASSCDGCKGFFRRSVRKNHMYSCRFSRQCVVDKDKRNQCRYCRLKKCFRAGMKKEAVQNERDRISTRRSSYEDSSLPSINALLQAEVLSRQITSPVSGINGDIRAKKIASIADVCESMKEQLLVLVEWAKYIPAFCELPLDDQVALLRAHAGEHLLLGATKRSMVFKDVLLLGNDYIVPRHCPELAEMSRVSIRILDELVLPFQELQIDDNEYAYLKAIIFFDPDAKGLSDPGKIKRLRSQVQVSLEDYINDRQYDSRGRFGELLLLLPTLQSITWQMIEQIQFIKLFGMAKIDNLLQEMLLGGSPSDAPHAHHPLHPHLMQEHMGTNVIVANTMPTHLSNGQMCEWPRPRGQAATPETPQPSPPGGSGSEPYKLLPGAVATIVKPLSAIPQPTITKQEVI
As to the kind of experiment: T6PNE insulin promoter assay (human insulin promoter-GFP transgene). It is filed as cell-based. Details: endogenous in cells; host or cells: T6PNE cells. Conditions: T6PNE cells, GFP-positive cells relative to DMSO. As to the method: The T6PNE insulin promoter assay has been described previously and was performed here with slight modifications as follows: T6PNE cells were seeded at 200 cells per well in 384-well tissue culture plates (Greiner Bio-One) in the presence of 0.5 μM tamoxifen. Compounds described herein in DMSO were dispensed with an Echo 555 Acoustic Liquid Handler (Beckman Coulter). Three days after compound addition, cells were fixed in 4% paraformaldehyde (USBio) for 15 min and stained with DAPI (0.167 μg/ml, Invitrogen). Blue (DAPI) and green (GFP) channels were imaged using a Celigo imaging cytometer (Nexcelom Bioscience). The number of GFPpositive cells was normalized to the DAPI-positive cell number and fold change calculated relative to the DMSO control.
T6PNE cells were maintained in RPMI (5.5mM glucose, Corning) supplemented with 10% fetal bovine serum (FBS, Sigma-Aldrich) and 1% penicillin-streptomycin (pen-strep, Gibco). Cells were maintained in 5% CO2 at 37° C. For the insulin promoter assay, 0.5 μM tamoxifen (Sigma-Aldrich) was added to T6PNE cell culture media. HepG2 or HeLa cells were cultured in DMEM (high glucose, Corning) supplemented with 10% FBS and 1% pen-strep and maintained at 5% CO2, 37° C.

In a further assay the test system is T6PNE cells. As to the kind of experiment: fat clearance assay in palmitate-treated T6PNE cells (Oil Red O, Nile Red, triglyceride). It is filed as cell-based, human. Conditions: for fat clearance (stored fat by Oil Red O and Nile Red staining): 0.25 mM palmitate for 2 days; for effect on fat clearance induced by NCT: palmitate, inhibitor or siRNA plus NCT. How it is done:
Oil red O and Nile Red staining were used to measure lipid accumulation. Oil Red O staining was done as known in the art. Briefly, fixed cells were incubated with Oil Red O solution (Poly Scientific) for 3 h, followed by photomicrography (Olympus, IX71). For Nile Red staining, dye (1: 500 in PBS from 1 mg/ml in ethanol stock, Sigma) was added for 30 mins and DAPI added for 10 mins at room temperature. Quantification of Nile Red staining was done with a Celigo imaging cytometer (Nexcelom Bioscience). More than 4000 cells were analyzed for each quantification. The number of Nile Redpositive cells was normalized to the DAPI-positive cell number for each well and fold change was calculated relative to a DMSO control well.
Palmitate (150 mM) (Sigma-Aldrich) was prepared in 50% ethanol and precomplexed with 15% fatty acid-free BSA (Research Organics, Cleveland, Ohio, USA) in a 37 C water shaker. BSA-precomplexed palmitate was used as a 12 mM stock solution for all assays with a final concentration of 0.25 mM palmitate in cell culture medium.
siRNAs were purchased from Ambion. For transfections, 24 μL of each siRNA (1 μM stock) was mixed with 90 μL of a 1:100 dilution of Lipofectamine RNAi MAX (Invitrogen, Waltham, Mass., USA) in Opti-MEM. Transfection was done in 24 well plates (Thermo Fisher Scientific, Waltham, Mass., USA), by incubation with cells for 30 min. at room temperature. One day after transfection, cells were transferred to 96 well plates (2000 cells per well) and incubated at 37° C. for an additional day. Forty-eight hours after transfection, either palmitate-BSA complex or BSA control plus or minus compounds was added for 2 days. For validation of siRNAs, transfected cells were harvested for RNA purification and QPCR for each gene 2 days after transfection.
The bicinchoninic acid (BCA) protein assay kit assay (Thermo scientific) was used to measure protein amount for DART, Western blotting and TG assays. Absorbance at 550 nm was determined using a plate reader.

For assay [2] the following is noted: clinical trials for type 2 diabetes; cited from earlier work.
The test system of the next assay is p62. As to the kind of experiment: p62 Western blot in T6PNE cells. The format is cell-based, human. Conditions: NCT 10 μM, RA 10 μM, fenretinide. As to the method:
(§1) Whole-cell extracts were prepared by incubation in RIPA buffer (Invitrogen) containing protease inhibitors (Calbiochem, San Diego, Calif.). Protein ([…]) was separated on 12% or 16% Tri-Glycine gels (Invitrogen) and transferred to Immobilon P membrane (0.2 μm pore, Millipore). After 1 h in phosphate-buffered saline-Tween (PBST) with 3% milk, membrane was incubated with antibodies to HNF4α (mouse, Novus, 1:1000), LC3B (rabbit, Novus, 1:500), p62 (SQSTM1, mouse, Santa Cruz, 1:1000) or β-actin (mouse, Santa Cruz, 1:2000), followed by secondary antibody conjugated to horseradish peroxidase (1:5000, Jackson Immune).
Background: In western blotting, separated proteins are transferred to a membrane and probed.

Another assay concerns dihydroceramides. As to the kind of experiment: lipidomic analysis of ceramides and dihydroceramides in T6PNE cells. It is filed as cell-based, human. How it is done:
Ceramides and dihydroceramides were measured in the UCSD Lipidomics Core Facility as previously described (Quehenberger et al.). Briefly, samples were extracted using the butanol: methanol (BUME) method. The lipid layer was collected and run on a Thermo-Vanquish UPLC (Thermo Scientific) with a Cortecs T3 (C18), 2.1 mm×150 mm; 1.8 uT3 column and a binary solvent system. Mass spectrometry employed a Thermo Q Exactive instrument with MS/MS data dependent acquisition scan mode and LipidSearch software (Thermo Fisher Scientific).

A further assay relates to CYP26A1 mRNA. As to the kind of experiment: CYP26A1 mRNA in T6PNE cells. It is filed as cell-based, human. Conditions: 2 days, 0.25 mM palmitate, NCT 10 μM, 4-OH-RA 20 μM. How it is done:
Quantitative PCR (Q-PCR) from in vitro cell culture experiments used total RNA purified using RNeasy Kits (Qiagen). For liver tissue samples, total RNA was isolated using Trizol (Invitrogen) and prepared for RNAseq (mouse liver DMSO and NCT, N=3). cDNA was amplified using 3 μg of total RNA using qScript cDNA SuperMix (Quanta BioSciences, Beverly, Mass., USA). QPCR analysis was performed using SYBR® Select Master Mix (Applied Biosystems) and ABI 7900HT (Applied Biosystems, Thermo Fisher Scientific). The Ct values of mRNA expression were then normalized to the 18 s rRNA values and are expressed as fold change over samples from mice fed normal chow for in vivo experiments or DMSO controls for cell culture experiments.

Assay [3] deals with HNF4α. Conditions: previous finding, cited from earlier work.
Assay [4] has as its target T1, HNF4α. As to the kind of experiment: DARTS assay (HNF4α protease sensitivity) in HepG2 cells. Conditions: 40 or 80 μM for 16 h, subtilisin. It is filed as binding. On the set-up: Total cell protein was extracted; endogenous in cells; host or cells: HepG2 cells. How it is done: DARTS assays were conducted as described in the art. HepG2 cells were treated with DMSO, BI6015, NCT, NFT at a concentration of 40 or 80 μM for 16 hr. Total cell protein was extracted and measured by BCA protein assay (Thermo Scientific). Each sample was split into two aliquots for proteolysis without (−) or with (+) Subtilisin (Sigma-Aldrich). Forty […] of cell lysate was incubated with or without protease (40 ng/ml subtilisin) for 35 min at room temperature.
as §1

“Also recorded” adds a separate entry of the source.

With `CCN(CCCc1ccccc1)CCCc1ccccc1` [alverine, reference compound], in the assay on human insulin promoter, the “fatty acid-mediated repression of the human insulin promoter” value is listed as “reversed the fatty acid-mediated repression of the human insulin promoter”. For the same molecule, at HNF4α [1], the “insulin promoter activity / HNF4α activation” value is reported as “relatively weak activators; also recorded: fairly weak HNF4α activators”. As for `CCCCCCCCc1ccc(CCC(N)(CO)CO)cc1` [FTY720], the “fat clearance (stored fat by Oil Red O and Nile Red staining)” value in the assay on T6PNE cells is listed as “neither S1P nor FTY720 had any effect on fat clearance”.

For the molecule `CC(Cc1cccc(C(F)(F)F)c1)NCCOC(=O)c1ccccc1` (centres unmarked) [benfluorex, reference compound], the “fatty acid-mediated repression of the human insulin promoter” value in the assay on human insulin promoter is reported as “reversed the fatty acid-mediated repression of the human insulin promoter”. The “insulin promoter activity / HNF4α activation” value on HNF4α [1] is given as “relatively weak activators; also recorded: fairly weak HNF4α activators”. Moreover, in assay [2], the HbA1c entry is “effective at reducing HbA1c”. As to `CC1=C(/C=C/C(C)=C/C=C/C(C)=C/C(=O)Nc2ccc(O)cc2)C(C)(C)CCC1` [Fenretinide, fenretinide, reference compound], the “fat clearance (stored fat by Oil Red O and Nile Red staining)” value in the assay with T6PNE cells is on record as “strongly positive”; in the assay with T6PNE cells (listed as fenretinide), “induced fat clearance from T6PNE cells”. Further, in the assay with p62, the “p62 protein expression normalized to actin” value is “had a statistically significant effect”. Moreover, the dihydroceramide production result in the assay on dihydroceramides (2 days after treatment) was “induced multiple identical dihydroceramides”. Also, the “ceramide (Cer)/dihydroceramide (DH-Cer) ratio” value in the assay with dihydroceramides (NCT+RA 10 μM, fenretinide 5 μM) is “substantial decrease”. `O=C(Oc1nsnc1N1CCCCC1)N1CCCCC1` [Lalistat 2]: the “effect on fat clearance induced by NCT” value in the assay with T6PNE cells is listed as “eliminated the ability of N-trans-caffeoyltyramine to effect fat clearance; also recorded: inhibited the ability of NCT to promote fat clearance”; with T6PNE cells (listed as Lalistat2) it was “inhibits the effect of NCT on fat clearance”. For the molecule `CC1=C(/C=C/C(C)=C/C=C/C(C)=C/C(=O)O)C(C)(C)CCC1O` (centres unmarked) [4-OH RA, reference compound], the “fat clearance (stored fat by Oil Red O and Nile Red staining)” value with T6PNE cells is given as “induced fat clearance from T6PNE cells”. For the same molecule, in the assay on CYP26A1 mRNA, the “CYP26A1 mRNA level” value is given as “induced an increase in CYP26A1 mRNA”. With `CCC(CC)C(c1ccc(Nc2nc3ccccc3s2)cc1)n1cncn1` (centres unmarked) [talarazole], the “effect on fat clearance induced by NCT” value with T6PNE cells is “inhibited fat clearance by NCT”. As to `CCCCCCCCCCCCCC1=C([C@H](O)[C@@H](CO)NC(=O)CCCCCCC)C1` [GT-11, N-[(1R,2S)-2-hydroxy-1-hydroxymethyl-2-(2-tridecyl-1-cyclopropenyl)ethyl] octanamide], the “fat clearance (stored fat by Oil Red O and Nile Red staining)” value with T6PNE cells is given as “strongly positive; also recorded: increase fat clearance”. Take `CCCCCCCCCCCCC/C=C/[C@@H](O)[C@@H](N)COP(=O)(O)O` [S1P, sphingosine-1-phosphate]: the “fat clearance (stored fat by Oil Red O and Nile Red staining)” value with T6PNE cells is reported as “did not have any effect on fat storage; also recorded: neither S1P nor FTY720 had any effect on fat clearance”.

As to dihydroceramide, in the assay on T6PNE cells, the “fat clearance (stored fat by Oil Red O and Nile Red staining)” value is recorded as “active at inducing fat clearance”.

Regarding `Nn1nnc2ccccc21` [ABT], in the assay with T6PNE cells, the “effect on fat clearance induced by NCT” value is reported as “inhibited fat clearance by NCT”. For the molecule `Cc1ccc([N+](=O)[O-])cc1S(=O)(=O)n1c(C)nc2ccccc21` [BI6015], the hepatic steatosis entry with HNF4α [3] (in vitro and in vivo) was “caused hepatic steatosis in vitro and in vivo”. In the assay on HNF4α [3] (in vivo), the “HNF4α expression in the liver” value was “caused loss of HNF4a expression in the liver; also recorded: caused loss of HNF4α expression in the liver”. Also, the “HNF4α proteolytic sensitivity / conformational change” value at HNF4α [4] is “induced a conformational change in HNF4α”.
